The test system of assay [1] is primary neuron (neuron, astrocyte and microglia) prepared from brain cortex of a rat fetus. Kind of assay: Amyloid β fragment disorder in primary neuron. The format is cell-based. The conditions noted are these: concrete data not shown. The source says: Though concrete data is not shown, using primary neuron (neuron, astrocyte and microglia) prepared from brain cortex of a rat fetus in place of PC12-HS cells, the influence of NK-4, NK-26, NK-234, NK-19 and NK-150 on amyloid β fragment disorder and hydrogen peroxide disorder was investigated.

The next assay concerns brain ischemia rat. Kind of assay: Brain ischemia (cerebral infarction model) rat: behavioral score. The format is in vivo. On the set-up: Behavioral score: scale not given here. The settings on record: for behavioral score (in words): Experiment 13, cerebral-infarction-model rat, administered through caudal vein. As for the experimental part:
Male SD rats, seven- to eight-weeks of age and 280 to 330 g body weight, commercialized by Charles River Laboratories Japan Inc., Kanagawa, Japan, were allocated randomly into seven groups, consisting of five to seven rats in each group. Among the seven groups, five groups were subjected to the following surgery as test groups: Rats in the test groups were subcutaneously administered with 0.3 mg/kg body weight of atropine, commercialized by Fuso Pharmaceutical industries, Osaka, Japan. Successively, each rat was anesthetized by administrating 600 mg/kg body weight of urethane, commercialized by Sigma-Aldrich Co., MO, USA, and 60 mg/kg-weight of […], commercialized by Sigma-Aldrich Co., MO, USA, into the peritoneal cavity, and fixed to a fixator under voluntary breathing conditions. The right carotid artery bifurcation was exposed by median incision of the neck without damaging vagus nerve. The common carotid artery and external carotid artery around the right carotid artery bifurcation were exfoliated from surrounding connective tissue and wired respectively using “NESCOSUTURE”, a 6-0 nylon string commercialized by Alfresa Pharma Corporation, Osaka, Japan. Then, the internal carotid artery was tied with the 6-0 nylon string for fixation after insertion of an obturator. Successively, the common carotid artery was incised and a silicon-coated obturator, prepared by a 4-0 nylon string, commercialized by Doccol Corp., CA, USA, was inserted from the common carotid artery into the internal carotid artery at a distance of about 16 mm, and clipped to the common carotid artery (see, for example, Koizumi et al., Cerebral stroke, Vol. 8, No. 1, pp. 1-8 (1986)). By the method, the silicon-coated tip of obturator was inserted through the right carotid artery bifurcation to frontal cerebral artery at a distance of about 2 mm and obstructs the inlet of the medial cerebral artery. After two hours occlusion of the medial cerebral artery while keeping the rat on an isothermal pad controlled at a temperature of 37° C., blood was allowed to reperfuse by withdrawing the obturator. Then, the internal carotid artery was tied near the carotid artery bifurcation for preventing the bleeding from the incised part of the common carotid artery. In the model, the blood was reperfused through the left carotid artery, vertebral artery, basilar artery, frontal and backward communication artery because the right carotid artery was clipped.
NK-4, NK-19, NK-53, NK-100, and NK-557, used in the test, were respectively dissolved in DMSO (product No. “D8418”, commercialized by Sigma-Aldrich Co., MO, USA) to give a concentration of 5 mg/ml and filtrated using “MILLEX-LG SLLG025SS”, a DMSO-resistant membrane filter commercialized by Millipore, MA, USA. Stock […], and then 4 ml/kg body weight of any of the resulting diluted solutions was administered ([…]) to five test groups (test groups 1 to 5) consisting of five or seven rats, through their caudal veins at both after one hour from the occlusion of middle cerebral artery and immediately after initiating reperfusion. After 24 hours from the reperfusion of blood, behavioral and histological evaluations of rats were carried out according to the following procedures: As a control group 1, five rats in one group out of the remaining two groups were subjected to the same surgery as the rats in the test groups 1 to 5, and administered with 4 ml/kg body weight of PBS free of any of the compounds through their caudal veins at both after one hour of the medial cerebral artery occlusion and immediately after the start of reperfusion. As the control group 2, six rats in the remaining one group were subjected to a sham surgery, in which common, external, and internal carotid arteries were clipped and then reperfused their blood without inserting the obturator to each medial cerebral artery. […]

In assay [2] the target is T1, acetylcholine esterase (AchE) (Rattus norvegicus, UniProt P37136).
T1 sequence (P37136 32-614): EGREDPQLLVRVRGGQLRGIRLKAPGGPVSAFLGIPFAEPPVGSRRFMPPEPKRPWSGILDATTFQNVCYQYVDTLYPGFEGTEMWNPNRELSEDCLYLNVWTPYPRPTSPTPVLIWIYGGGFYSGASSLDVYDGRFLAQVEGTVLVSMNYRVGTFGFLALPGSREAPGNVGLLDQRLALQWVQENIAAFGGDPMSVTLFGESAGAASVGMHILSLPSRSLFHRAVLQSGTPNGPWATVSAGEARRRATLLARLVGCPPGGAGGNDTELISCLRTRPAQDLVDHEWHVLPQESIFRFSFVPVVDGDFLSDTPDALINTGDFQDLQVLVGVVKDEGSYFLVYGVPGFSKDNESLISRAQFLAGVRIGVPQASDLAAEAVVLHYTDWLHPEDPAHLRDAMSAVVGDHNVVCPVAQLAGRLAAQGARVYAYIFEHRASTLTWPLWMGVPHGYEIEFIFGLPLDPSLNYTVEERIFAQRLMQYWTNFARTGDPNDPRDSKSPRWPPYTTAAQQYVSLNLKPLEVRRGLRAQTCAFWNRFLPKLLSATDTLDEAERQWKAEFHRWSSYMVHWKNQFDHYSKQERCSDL
Kind of assay: biochemical. The format is biochemical. The conditions noted are these: for action of inhibiting AchE activity (in words): Experiment 14, comparison of NK-4 analogues and NK-150.

Where [3] appears, read: brain ischemia rats (embolus, 2 h occlusion, reperfusion), 100 p g/kg body weight via caudal vein 1 h after occlusion and at reperfusion, 24 hours after reperfusion, maximum score 6.
The mark [4] stands for this setting: embolus rat, dose 100 μg per kg body weight, caudal vein.
Where [5] appears, read: concentration of compound 0.78 μg/ml.
Setting [6] is: concentration of compound 1.56 μg/ml.
Where [7] appears, read: concentration of compound 3.13 μg/ml.
The mark [8] stands for this setting: concentration of compound 6.25 μg/ml.
The mark [9] stands for this setting: concentration of compound 12.5 μg/ml.
The mark [10] stands for this setting: concentration of compound 25 μg/ml.
[11] abbreviates: concentration of compound 50 μg/ml.
Where [12] appears, read: concentration that suppresses AchE activity by 50%, calculated from residual ratios.
Where [13] appears, read: compound concentration 0.78 μg/ml, read-out: Residual ratio of AchE activity (%).
[14] abbreviates: compound concentration 1.56 μg/ml, read-out: Residual ratio of AchE activity (%).
The mark [15] stands for this setting: compound concentration 3.13 μg/ml, read-out: Residual ratio of AchE activity (%).
The mark [16] stands for this setting: compound concentration 6.25 μg/ml, read-out: Residual ratio of AchE activity (%).
The mark [17] stands for this setting: compound concentration 12.5 μg/ml, read-out: Residual ratio of AchE activity (%).
Setting [18] is: compound concentration 25 μg/ml, read-out: Residual ratio of AchE activity (%).

Where two headings read alike, the source gives them in different places.

As for `CCN1C=CC(=CC=C(C=Cc2cc[n+](CC)c3ccccc23)c2cc[n+](CC)c3ccccc23)c2ccccc21.[I-].[I-]` [NK-4], in assay [1], the “suppressing amyloid β fragment disorder” value was “actions of suppressing”. Further, the “behavioral score (in words)” value with brain ischemia rat was “significantly improved”. Also, the Behavioral score in the assay on brain ischemia rat (setting [3]) was determined as 2.9 ± 0.2; in the assay on brain ischemia rat (embolus rat, dose 25 μg per kg body weight, caudal vein) it was 4.5 ± 0.6; in the assay on brain ischemia rat (embolus rat, dose 50 μg per kg body weight, caudal vein), 3.3 ± 0.4; in the assay on brain ischemia rat (setting [4]), 2.6 ± 0.2; with brain ischemia rat (embolus rat, dose 200 μg per kg body weight, caudal vein), 3.7 ± 0.4; with brain ischemia rat (embolus rat, dose 300 μg per kg body weight, caudal vein), 4.2 ± 0.5. For the same compound, the “IC50 (concentration of a compound inhibiting the AchE activity of 50%)” value in assay [2] (AchE solution from PC12-HS cells) stood at 3.3 µg/mL. In assay [2], the “action of inhibiting AchE activity (in words)” value is on record as “strongly inhibited AchE activity”. Besides, the “Residual ratio of AchE activity (%)” value in assay [2] (compound concentration 0.78 μg/ml) is given as 84 ± 6%; in assay [2] (compound concentration 1.56 μg/ml) it was 66 ± 7%; in assay [2] (compound concentration 3.13 μg/ml) it was 42 ± 4 %; in assay [2] (compound concentration 6.25 μg/ml) it was 37 ± 10 %; in assay [2] (compound concentration 12.5 μg/ml), 38 ± 2 %; in assay [2] (compound concentration 25 μg/ml) it was 30 ± 8 %. In addition, the “Residual ratio of AchE activity (%)” value in assay [2] (setting [5]) worked out at 91 ± 4%; in assay [2] (setting [6]) it was 47 ± 4 %; in assay [2] (setting [7]), 41 ± 9 %; in assay [2] (setting [8]), 38 ± 7 %; in assay [2] (setting [9]), 24 ± 2 %; in assay [2] (setting [10]) it was 25 ± 3 %. The “Residual ratio of AchE activity (%)” value in assay [2] (setting [11]) was found to be 22 ± 2 %. Also, in assay [2] (setting [12]), the “IC50” value is 1.5 µg/mL.

Consider `CCCCN1C=C/C(=C/C=C(/C=C/c2cc[n+](CCCC)c3ccccc23)c2cc[n+](CCCC)c3ccccc23)c2ccccc21` [NK-26], for which the “suppressing amyloid β fragment disorder” value in assay [1] was “actions of suppressing”. For the same compound, in the assay on brain ischemia rat, the “behavioral score (in words)” value was “significantly improved”. Moreover, the Behavioral score in the assay with brain ischemia rat (embolus rat, dose 1 μg per kg body weight, caudal vein) was 4.4 ± 0.4; in the assay on brain ischemia rat (embolus rat, dose 10 μg per kg body weight, caudal vein), 3.44 ± 0.6; in the assay on brain ischemia rat (setting [4]), 4.3 ± 0.4. Moreover, in assay [2] (concentration of compound 0.78 μg/ml, read-out: Residual ratio of AchE activity (%)), the remaining activity at 0.78 µg/mL was 94 ± 11%. In addition, the remaining activity at 1.56 µg/mL in assay [2] (concentration of compound 1.56 μg/ml, read-out: Residual ratio of AchE activity (%)) amounted to 84 ± 9%. Besides, the remaining activity at 3.13 µg/mL in assay [2] (concentration of compound 3.13 μg/ml, read-out: Residual ratio of AchE activity (%)) came to 88 ± 8%. In assay [2] (concentration of compound 6.25 μg/ml, read-out: Residual ratio of AchE activity (%)), the remaining activity at 6.25 µg/mL came to 88 ± 7%. In assay [2] (concentration of compound 12.5 μg/ml, read-out: Residual ratio of AchE activity (%)), the remaining activity at 12.5 µg/mL was 69 ± 5%. Also, in assay [2] (concentration of compound 25 μg/ml, read-out: Residual ratio of AchE activity (%)), the remaining activity at 25 µg/mL turned out to be 48 ± 4%. In addition, the remaining activity at 50 µg/mL in assay [2] (concentration of compound 50 μg/ml, read-out: Residual ratio of AchE activity (%)) stood at 36 ± 9%. In assay [2] (concentration that suppresses AchE activity by 50%, calculated from residual ratios, read-out: IC50 (μg/ml) (converted)), the IC50 was 37.6 µM.

As to `CCN1/C(=C/C=C(/C=C/c2sc3ccccc3[n+]2CC)c2sc3ccccc3[n+]2CC)Sc2ccccc21.[I-].[I-]` [NK-100], the Behavioral score with brain ischemia rat (setting [3]) stood at 2.4 ± 0.2. For the same compound, the IC50 in assay [2] (AchE solution from PC12-HS cells, read-out: IC50 (concentration of a compound inhibiting the AchE activity of 50%) (converted)) was 14.6 µM. In assay [2] (setting [13]), the remaining activity at 0.78 µg/mL was 77 ± 18%. In assay [2] (setting [14]), the remaining activity at 1.56 µg/mL was 68 ± 16%. For the same compound, the remaining activity at 3.13 µg/mL in assay [2] (setting [15]) is 67 ± 3%. Besides, the remaining activity at 6.25 µg/mL in assay [2] (setting [16]) stood at 60 ± 3%. In assay [2] (setting [17]), the remaining activity at 12.5 µg/mL stood at 49 ± 5%. Moreover, the remaining activity at 25 µg/mL in assay [2] (setting [18]) was found to be 43 ± 3%.

On to `CCCN1C=CC(=CC=C(C=Cc2cc[n+](CCC)c3ccccc23)c2cc[n+](CCC)c3ccccc23)c2ccccc21.[I-].[I-]` [NK-234], for which the “suppressing amyloid β fragment disorder” value in assay [1] was “actions of suppressing”. Also, the “action of inhibiting AchE activity (in words)” value in assay [2] is on record as “strongly inhibited AchE activity”. The “Residual ratio of AchE activity (%)” value in assay [2] (setting [5]) is 77 ± 21%; in assay [2] (setting [6]), 77 ± 13%; in assay [2] (setting [7]), 47 ± 11 %; in assay [2] (setting [8]), 45 ± 9 %; in assay [2] (setting [9]) it was 30 ± 12 %; in assay [2] (setting [10]), 26 ± 6 %. In addition, the “Residual ratio of AchE activity (%)” value in assay [2] (setting [11]) is given as 12 ± 6 %. Also, in assay [2] (setting [12]), the “IC50” value was 3.0 µg/mL.

With `CC[n+]1ccccc1/C=C/c1ccc(N(C)C)cc1` [NK-557], the Behavioral score in the assay on brain ischemia rat (setting [3]) was 2.9 ± 0.3. Also, the remaining activity at 0.78 µg/mL in assay [2] (setting [13]) is 110 ± 1%. Also, the remaining activity at 1.56 µg/mL in assay [2] (setting [14]) was 107 ± 2%. The remaining activity at 3.13 µg/mL in assay [2] (setting [15]) came to 97 ± 5%. Moreover, the remaining activity at 6.25 µg/mL in assay [2] (setting [16]) came to 97 ± 3%. Moreover, the remaining activity at 12.5 µg/mL in assay [2] (setting [17]) is 97 ± 4%. Also, the remaining activity at 25 µg/mL in assay [2] (setting [18]) worked out at 88 ± 9%.
